Where a name gives a salt, the structure may show the parent alone.
Biological target: Proton Pump (H^+/K^+-ATPase) (Sus scrofa, UniProt P19156)
Test: Inhibitory effects on proton pump (H^+/K^+-ATPase) activity
Type: biochemical
Conditions: hog gastric vesicles; K^+ stimulated H^+/K^+-ATPase activity; 30 minutes at 37° C.

Chain of Proton Pump (H^+/K^+-ATPase) (P19156 2-1034 limits assumed): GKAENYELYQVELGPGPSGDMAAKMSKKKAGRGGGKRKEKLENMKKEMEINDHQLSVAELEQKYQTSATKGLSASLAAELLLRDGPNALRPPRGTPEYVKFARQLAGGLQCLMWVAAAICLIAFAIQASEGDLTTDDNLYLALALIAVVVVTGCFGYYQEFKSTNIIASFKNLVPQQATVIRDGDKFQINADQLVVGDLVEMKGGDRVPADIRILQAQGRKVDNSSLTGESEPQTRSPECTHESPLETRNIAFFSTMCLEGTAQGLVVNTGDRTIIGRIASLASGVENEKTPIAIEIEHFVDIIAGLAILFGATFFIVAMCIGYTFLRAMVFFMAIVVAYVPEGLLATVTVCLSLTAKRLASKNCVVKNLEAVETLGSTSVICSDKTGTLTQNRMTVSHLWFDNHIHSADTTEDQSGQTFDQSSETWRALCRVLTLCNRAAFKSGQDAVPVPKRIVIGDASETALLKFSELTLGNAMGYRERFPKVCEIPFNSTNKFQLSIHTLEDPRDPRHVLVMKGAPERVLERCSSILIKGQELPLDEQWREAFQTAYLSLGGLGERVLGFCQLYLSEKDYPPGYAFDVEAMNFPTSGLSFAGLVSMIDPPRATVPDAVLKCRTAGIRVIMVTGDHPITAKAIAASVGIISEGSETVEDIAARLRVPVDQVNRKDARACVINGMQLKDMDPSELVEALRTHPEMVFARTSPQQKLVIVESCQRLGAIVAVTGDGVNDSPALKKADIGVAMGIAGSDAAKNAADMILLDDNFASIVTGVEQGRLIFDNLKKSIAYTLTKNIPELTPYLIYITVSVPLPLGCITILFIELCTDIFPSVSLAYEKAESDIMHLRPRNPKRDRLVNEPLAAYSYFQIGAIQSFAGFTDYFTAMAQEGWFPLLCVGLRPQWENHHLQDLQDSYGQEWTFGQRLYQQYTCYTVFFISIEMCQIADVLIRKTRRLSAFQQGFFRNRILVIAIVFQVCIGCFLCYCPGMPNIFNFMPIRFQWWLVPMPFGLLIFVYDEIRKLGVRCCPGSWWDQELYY
Chain of Proton Pump (H^+/K^+-ATPase) (P18434 whole entry partner): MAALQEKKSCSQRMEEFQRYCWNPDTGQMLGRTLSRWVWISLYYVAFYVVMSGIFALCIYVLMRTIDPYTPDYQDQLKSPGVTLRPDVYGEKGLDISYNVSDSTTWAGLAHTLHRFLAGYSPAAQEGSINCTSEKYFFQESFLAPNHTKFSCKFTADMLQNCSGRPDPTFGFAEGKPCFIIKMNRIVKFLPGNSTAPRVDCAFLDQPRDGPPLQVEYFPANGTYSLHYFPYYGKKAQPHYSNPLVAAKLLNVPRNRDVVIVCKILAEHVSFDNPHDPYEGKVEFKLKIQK

Structure (SMILES) | IC50 [nM]
COc1ccc(-c2nccc3c(C)c(C)n(Cc4ccccc4)c23)cc1 [Example 350, 1-benzyl-7-(4-methoxyphenyl)-2,3-dimethyl-1H-pyrrolo[2,3-c]pyridine hydrochloride] | 210
CCn1c(C)c(C)c2ccnc(NCc3ccccc3C)c21 [Example 225, 1-ethyl-2,3-dimethyl-7-(2-methylbenzylamino)-1H-pyrrolo[2,3-c]pyridine hydrochloride] | 350
COCCn1c(C)c(C)c2ccnc(N3CCc4ccccc4C3C)c21 (stereo not shown) [Example 555, 2-[1-(2-methoxyethyl)-2,3-dimethyl-1H-pyrrolo[2,3-c]pyridin-7-yl]-1-methyl-1,2,3,4-tetrahydroisoquinoline hydrochloride] | 230
Cc1cccc(Cn2c(C)c(C)c3ccnc(CN(C)c4ccc(F)cc4)c32)c1 [Example 126, N-[2,3-dimethyl-1-(3-methylbenzyl)-1H-pyrrolo[2,3-c]pyridin-7-ylmethyl]-N-(4-fluorophenyl)-methylamine hydrochloride] | 397
C=Cc1ccc(-c2nccc3c(C)c(C)n(Cc4cccc(OC)c4)c23)cc1 [Example 253, 2,3-dimethyl-1-(3-methoxybenzyl)-7-(4-vinylphenyl)-1H-pyrrolo[2,3-c]pyridine hydrochloride] | 170
Cc1ccc(Cn2c(C)c(C)c3ccnc(NCc4ccc(F)cc4)c32)cc1 [Example 220, 7-(4-fluorobenzylamino)-2,3-dimethyl-1-(4-methylbenzyl)-1H-pyrrolo[2,3-c]pyridine hydrochloride] | 430
COc1cccc(Cn2c(C)c(C)c3ccnc(CN(C)c4ccc(F)cc4)c32)c1 [Example 116, N-(4-fluorophenyl)-N-[1-(3-methoxybenzyl)-2,3-dimethyl-1H-pyrrolo[2,3-c]pyridin-7-ylmethyl]-methylamine hydrochloride] | 48
COCn1c(C)c(C)c2ccnc(N3CCc4ccccc4C3)c21 [Example 496, 1-methoxymethyl-7-(1,2,3,4-tetrahydroisoquinolin-2-yl)-2,3-dimethyl-1H-pyrrolo[2,3-c]pyridine hydrochloride] | 230
Cc1c(C)n(Cc2cccc(F)c2)c2c(CN(C)c3ccc(F)cc3)nccc12 [Example 114, N-[1-(3-fluorobenzyl)-2,3-dimethyl-1H-pyrrolo[2,3-c]pyridin-7-ylmethyl]-N-(4-fluorophenyl)-methylamine hydrochloride] | 27
Cc1nc(Cn2c(C)c(C)c3ccnc(N4CCc5ccc(F)cc5C4C)c32)cs1 (stereo not shown) [Example 551, 2-[2,3-dimethyl-1-(2-methylthiazol-4-ylmethyl)-1H-pyrrolo[2,3-c]pyridin-7-yl]-7-fluoro-1-methyl-1,2,3,4-tetrahydroisoquinoline hydrochloride] | 320
C=CCn1c(C)c(C)c2ccnc(N3CCc4ccccc4C3)c21 [Example 489, 1-allyl-7-(1,2,3,4-tetrahydroisoquinolin-2-yl)-2,3-dimethyl-1H-pyrrolo[2,3-c]pyridine p-toluenesulfonate] | 3
C=CCn1c(C)c(C)c2ccnc(N3CCc4ccccc4C3)c21 [Example 486, 1-allyl-7-(1,2,3,4-tetrahydroisoquinolin-2-yl)-2,3-dimethyl-1H-pyrrolo[2,3-c]pyridine tartrate] | 8

The next lines start with the values.

IC50 [nM] | Structure (SMILES)
15 | C=CCn1c(C)c(C)c2cc(C(=O)N3CCCCC3)nc(N3CCc4ccccc4C3)c21 [Example 786, [1-allyl-7-(3,4-dihydro-1H-isoquinolin-2-yl)-2,3-dimethyl-1H-pyrrolo[2,3-c]pyridin-5-yl]-(piperidin-1-yl)-methanone hydrochloride]
350 | C=CCn1c(C)c(C)c2cc(C(=O)NCC(F)(F)F)nc(N3CCc4ccccc4C3)c21 [Example 762, 1-allyl-7-(3,4-dihydro-1H-isoquinolin-2-yl)-2,3-dimethyl-N-(2,2,2-trifluoroethyl)-1H-pyrrolo[2,3-c]pyridin-5-carboxamide]
130 | Cc1c(C)n(Cc2ccccc2)c2c(N3CCc4ccccc4C3)nc(C(=O)O)cc12 [Example 744, 1-benzyl-7-(3,4-dihydro-1H-isoquinolin-2-yl)-2,3-dimethyl-1H-pyrrolo[2,3-c]pyridin-5-carboxylate sodium]
213 | Cc1c(C)n(Cc2cccc(F)c2)c2c(N3CCc4ccccc4C3)nc(C=O)cc12 [Example 864, 7-(3,4-dihydro-1H-isoquinolin-2-yl)-1-(3-fluorobenzyl)-2,3-dimethyl-1H-pyrrolo[2,3-c]pyridin-5-carbaldehyde hydrochloride]
39 | CCNCc1cc2c(C)c(C)n(Cc3cccc(F)c3)c2c(N2CCc3ccccc3C2)n1 [Example 868, N-[7-(3,4-dihydro-1H-isoquinolin-2-yl)-1-(3-fluorobenzyl)-2,3-dimethyl-1H-pyrrolo[2,3-c]pyridin-5-ylmethyl]-ethylamine hydrochloride]
1560 | C=CCCn1c(C)c(C)c2cc(C#N)nc(N3CCc4ccccc4C3)c21 [Example 683, 1-(but-3-enyl)-7-(3,4-dihydro-1H-isoquinolin-2-yl)-2,3-dimethyl-1H-pyrrolo[2,3-c]pyridin-5-carbonitrile]
13 | CCn1c(C)c(C)c2cc(C(=O)N3CCC(O)CC3)nc(N3CCc4ccccc4C3)c21 [Example 806, [7-(3,4-dihydro-1H-isoquinolin-2-yl)-1-ethyl-2,3-dimethyl-1H-pyrrolo[2,3-c]pyridin-5-yl]-(4-hydroxypiperidin-1-yl)-methanone hydrochloride]
481 | Cc1c(C)n(Cc2cccc(F)c2)c2c(N3CCc4ccccc4C3)nc(C#N)cc12 [Example 695, 7-(3,4-dihydro-1H-isoquinolin-2-yl)-1-(3-fluorobenzyl)-2,3-dimethyl-1H-pyrrolo[2,3-c]pyridin-5-carbonitrile]
24 | Cc1c(C)n(CC2CC2)c2c(N3CCc4ccccc4C3)nc(C(=O)N3CCN(C)CC3)cc12 [Example 817, [1-cyclopropylmethyl-7-(3,4-dihydro-1H-isoquinolin-2-yl)-2,3-dimethyl-1H-pyrrolo[2,3-c]pyridin-5-yl]-(4-methylpiperazin-1-yl)-methanone hydrochloride]
231 | COC(=O)c1cc2c(C)c(C)n(Cc3ccccc3)c2c(N2CCc3ccccc3C2)n1 [Example 743, 1-benzyl-7-(3,4-dihydro-1H-isoquinolin-2-yl)-2,3-dimethyl-1H-pyrrolo[2,3-c]pyridin-5-carboxylic acid methyl ester]
77 | Cc1[nH]c2c(N3CCc4ccccc4C3)nc(C(=O)N3CCN(C)CC3)cc2c1C [Example 827, [7-(3,4-dihydro-1H-isoquinolin-2-yl)-2,3-dimethyl-1H-pyrrolo[2,3-c]pyridin-5-yl]-(4-methylpiperazin-1-yl)-methanone hydrochloride]
129 | CCn1c(C)c(C)c2cc(N)nc(N3CCc4ccccc4C3)c21 [Example 849, 7-(3,4-dihydro-1H-isoquinolin-2-yl)-1-ethyl-2,3-dimethyl-1H-pyrrolo[2,3-c]pyridin-5-amine hydrochloride]
31 | CCn1c(C)c(C)c2cc(C(=O)N3CCC(CO)CC3)nc(N3CCc4ccccc4C3)c21 [Example 805, [7-(3,4-dihydro-1H-isoquinolin-2-yl)-1-ethyl-2,3-dimethyl-1H-pyrrolo[2,3-c]pyridin-5-yl]-(4-hydroxymethylpiperidin-1-yl)-methanone hydrochloride]
